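Grown in 96-well plates, cells were treated for 48 hours with each compound at five concentrations. Insufficient inhibition: endpoint recorded as highest concentration tested. GI50 = concentration required for 50% inhibition of growth.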 Activity calls are given as the source filed them. Cut-off read from the data, not from the text of the source: active = GI50 up to about 1.1 µM and inactive = higher.
What was measured:
Experiment in all cases: NCI-60 cell line screen, 48 h
NCI-H522 = test system: NCI-H522
U-251 = test system: U-251
SN12C = test system: SN12C
EKVX = test system: EKVX
SR = test system: SR
RXF 393 = test system: RXF 393
NCI-H460 = test system: NCI-H460
SF-539 = test system: SF-539
SF-295 = test system: SF-295
Malme-3M = test system: Malme-3M
SNB-19 = test system: SNB-19
SK-MEL-5 = test system: SK-MEL-5
M14 = test system: M14
SNB-75 = test system: SNB-75
OVCAR-8 = test system: OVCAR-8
OVCAR-5 = test system: OVCAR-5
RPMI-8226 = test system: RPMI-8226
SW-620 = test system: SW-620
COLO 205 = test system: COLO 205
UACC-257 = test system: UACC-257

Measured: GI50

CCCN(CCCCN1C(=O)c2ccccc2C1=O)CC1COc2ccccc2O1 (stereo not given)
inactive: NCI-H522 > 100 µM | U-251 74 µM | SN12C > 100 µM | EKVX > 100 µM | SR 25.1 µM | RXF 393 94.4 µM | NCI-H460 53.5 µM | SF-539 83.2 µM | SF-295 > 100 µM | Malme-3M > 100 µM | SNB-19 > 100 µM | SK-MEL-5 28.6 µM | M14 > 100 µM | SNB-75 > 100 µM | OVCAR-8 > 100 µM | OVCAR-5 > 100 µM | RPMI-8226 26.4 µM | SW-620 > 100 µM | COLO 205 50.1 µM | UACC-257 65.9 µM

COc1cccc2c(Nc3ccc(S(=O)(=O)NC(C)=O)cc3)c3ccc([N+](=O)[O-])cc3nc12
inactive: NCI-H522 17.5 µM | U-251 23.7 µM | SN12C 57.1 µM | EKVX 40.6 µM | SR 4.15 µM | RXF 393 97.9 µM | NCI-H460 32.3 µM | SF-539 60.5 µM | SF-295 > 88.3 µM | Malme-3M 33.9 µM | SNB-19 > 45 µM | SK-MEL-5 22.7 µM | M14 53.1 µM | SNB-75 8.28 µM | OVCAR-8 27.7 µM | OVCAR-5 > 66.5 µM | RPMI-8226 16.3 µM | SW-620 45.7 µM | COLO 205 28.5 µM | UACC-257 25.9 µM

O=C(N/N=C\c1ccc(Cl)cc1)Nc1ccc2ccccc2c1
inactive: NCI-H522 38.9 µM | U-251 23.9 µM | SN12C 40.6 µM | EKVX 64.9 µM | SR 36.2 µM | RXF 393 27.6 µM | NCI-H460 28.5 µM | SF-539 27.8 µM | SF-295 > 10 µM | Malme-3M 32.8 µM | SNB-19 30.4 µM | SK-MEL-5 > 100 µM | M14 59.2 µM | SNB-75 30.5 µM | OVCAR-8 27.4 µM | OVCAR-5 71.6 µM | RPMI-8226 70.8 µM | SW-620 46.2 µM | COLO 205 > 100 µM | UACC-257 95.5 µM

O=C(c1cc(O)ccc1O)c1ccccc1C(Cl)(Cl)Cl
inactive: NCI-H522 57.1 µM | U-251 > 100 µM | SN12C > 100 µM | EKVX 75.5 µM | SR 71.8 µM | RXF 393 > 100 µM | NCI-H460 > 100 µM | SF-539 > 100 µM | SF-295 55.7 µM | Malme-3M > 100 µM | SNB-19 > 100 µM | SK-MEL-5 35.6 µM | M14 88.7 µM | SNB-75 > 100 µM | OVCAR-8 80.9 µM | OVCAR-5 > 100 µM | RPMI-8226 47.5 µM | SW-620 > 100 µM | COLO 205 > 100 µM | UACC-257 39 µM

CCCCC(C(=O)CCC(=O)Nc1ccc(Cl)cc1)C(=O)C(C)C (stereo not given)
inactive: NCI-H522 > 100 µM | U-251 > 100 µM | SN12C > 100 µM | EKVX > 100 µM | SR > 100 µM | RXF 393 > 100 µM | NCI-H460 > 100 µM | SF-539 > 100 µM | SF-295 > 100 µM | Malme-3M > 100 µM | SNB-19 > 100 µM | SK-MEL-5 > 100 µM | M14 > 100 µM | SNB-75 > 100 µM | OVCAR-8 > 100 µM | OVCAR-5 > 100 µM | RPMI-8226 > 100 µM | SW-620 > 100 µM | COLO 205 > 100 µM | UACC-257 > 100 µM

CC1C(c2ccccc2)OP(=O)(OC(C#N)c2ccccc2)N1C (stereo not given)
inactive: NCI-H522 > 100 µM | U-251 67.9 µM | SN12C > 100 µM | EKVX > 100 µM | SR 91.4 µM | RXF 393 > 100 µM | NCI-H460 > 100 µM | SF-539 > 100 µM | SF-295 > 100 µM | Malme-3M 89.3 µM | SNB-19 > 100 µM | SK-MEL-5 > 100 µM | M14 97.7 µM | SNB-75 > 100 µM | OVCAR-8 > 100 µM | OVCAR-5 > 100 µM | RPMI-8226 33.5 µM | SW-620 97.9 µM | COLO 205 > 100 µM | UACC-257 68.9 µM

COc1cc(/C=C(\C#N)C(=O)c2ccccc2)cc(OC)c1OC
inactive: NCI-H522 > 100 µM | U-251 > 100 µM | SN12C > 100 µM | EKVX > 100 µM | SR > 100 µM | RXF 393 29.6 µM | NCI-H460 > 100 µM | SF-539 > 100 µM | SF-295 > 100 µM | Malme-3M > 100 µM | SNB-19 > 100 µM | SK-MEL-5 > 100 µM | M14 > 100 µM | SNB-75 38.1 µM | OVCAR-8 > 100 µM | OVCAR-5 > 100 µM | RPMI-8226 > 100 µM | SW-620 > 100 µM | COLO 205 > 100 µM | UACC-257 > 100 µM

CC(=O)/C(C)=N/NC(=O)c1ccccc1O
inactive: NCI-H522 > 100 µM | U-251 > 10 µM | SN12C > 10 µM | EKVX > 10 µM | SR 41.6 µM | RXF 393 > 10 µM | NCI-H460 > 10 µM | SF-539 > 10 µM | SF-295 > 10 µM | Malme-3M > 10 µM | SNB-19 > 10 µM | SK-MEL-5 95.1 µM | M14 > 10 µM | SNB-75 > 10 µM | OVCAR-8 > 10 µM | OVCAR-5 > 10 µM | RPMI-8226 > 10 µM | SW-620 > 10 µM | COLO 205 > 10 µM | UACC-257 > 10 µM

N#CC(NC12CC3CC(CC(C3)C1)C2)c1ccccc1 (stereo not given)
inactive: NCI-H522 > 100 µM | U-251 > 100 µM | SN12C > 100 µM | EKVX > 100 µM | SR > 100 µM | RXF 393 > 100 µM | NCI-H460 > 100 µM | SF-539 > 100 µM | SF-295 > 100 µM | Malme-3M > 100 µM | SNB-19 > 100 µM | SK-MEL-5 > 100 µM | M14 > 100 µM | SNB-75 > 100 µM | OVCAR-8 > 100 µM | OVCAR-5 > 100 µM | RPMI-8226 > 100 µM | SW-620 > 100 µM | COLO 205 > 100 µM | UACC-257 > 100 µM

Nc1ccn(C=C=CCO)c(=O)n1
inactive: NCI-H522 > 77.3 µM | U-251 > 100 µM | SN12C > 100 µM | EKVX > 100 µM | SR 190 µM | RXF 393 > 100 µM | NCI-H460 > 100 µM | SF-539 > 100 µM | SF-295 > 100 µM | Malme-3M > 100 µM | SNB-19 > 100 µM | SK-MEL-5 > 100 µM | M14 > 100 µM | SNB-75 > 93.8 µM | OVCAR-8 229 µM | OVCAR-5 > 100 µM | RPMI-8226 589 µM | SW-620 > 100 µM | COLO 205 > 100 µM | UACC-257 > 100 µM

From ChEMBL document CHEMBL1201862, “PubChem BioAssay data set” (2004)
